Reference: patent US8030321B2, “Benzofuro- and benzothienopyrimidine modulators of the histamine H4 receptor” (Janssen Pharmaceutica, NV, priority 2006, dated 2011)
Where a name gives a salt, the structure may show the parent alone. Read-outs that look alike come from different tables or passages of the source.

Target: T1, human histamine H4 receptor (Homo sapiens, UniProt Q9H3N8)
T1 construct: expressed in transfected cells; host or cells: SK-N-MC cells or COS7 cells, transiently transfected; cell membranes used
Assay: Binding Assay on Recombinant Human Histamine H4 Receptor
Experimental: Binding Assay on Recombinant Human Histamine H4 Receptor
SK-N-MC cells or COS7 cells were transiently transfected with pH4R and grown in 150 cm^2 tissue culture dishes. Cells were washed with saline solution, scraped with a cell scraper and collected by centrifugation (1000 rpm, 5 min). Cell membranes were prepared by homogenization of the cell pellet in 20 mM Tris-HCl with a polytron tissue homogenizer for 10 sec at high speed. Homogenate was centrifuged at 1000 rpm for 5 min at 4° C. […] The final pellet was resuspended in 50 mM Tris-HCl. Cell membranes were incubated with ^3H-histamine (5-70 nM) in the presence or absence of excess histamine (10,000 nM). […] Membranes were harvested by rapid filtration over Whatman GF/C filters and washed 4 times with ice-cold 50 mM Tris HCl. Filters were then dried, mixed with scintillant and counted for radioactivity. SK-N-MC or COS7 cells expressing human histamine H4 receptor were used to measure the affinity of binding of other compounds and their ability to displace ^3H-ligand binding by incubating the above-described reaction in the presence of various concentrations of inhibitor or compound to be tested.

[1] = competition binding with 3H-histamine (5 nM), membranes of SK-N-MC or COS7 cells expressing human H4 receptor, Cheng-Prusoff, KD 5 nM, average of results obtained, read-out: Ki

| SMILES | Ki [1] [nM] | Ki [nM] |
| --- | --- | --- |
| CC1CN(c2nc(N)nc3c2oc2ccc(Cl)cc23)CC(C)N1 (mixture of isomers) [Example 128, 8-Chloro-4-(3,5-dimethyl-piperazin-1-yl)-benzo[4,5]furo[3,2-d]pyrimidin-2-ylamine trifluoroacetic acid salt] | > 10000 |  |
| Nc1nc(N2CC[C@@H]3CNC[C@@H]32)c2oc3ccc(Cl)cc3c2n1 (relative stereo) [Example 95, (cis)-8-Chloro-4-(hexahydro-pyrrolo[3,4-b]pyrrol-1-yl)-benzo[4,5]furo[3,2-d]pyrimidin-2-ylamine trifluoroacetic acid salt] | 140 |  |
| COc1ccc2oc3c(N4C[C@H]5CCN[C@H]5C4)nc(N)nc3c2c1 (relative stereo) [Example 114, (cis)-4-(Hexahydro-pyrrolo[3,4-b]pyrrol-5-yl)-8-methoxy-benzo[4,5]furo[3,2-d]pyrimidin-2-ylamine trifluoroacetic acid salt] |  | 91 |
| CN1CCN(c2nc(N)nc3c2oc2ccc(Cl)cc23)CC1 [Example 1, 8-Chloro-4-(4-methyl-piperazin-1-yl)-benzo[4,5]furo[3,2-d]pyrimidin-2-ylamine] | 0.14 |  |
| Nc1nc(N2CC3CCCNC3C2)c2oc3c(Cl)cc(Cl)cc3c2n1 (centres unmarked) [Example 2, 6,8-Dichloro-4-(octahydro-pyrrolo[3,4-b]pyridin-6-yl)-benzo[4,5]furo[3,2-d]pyrimidin-2-ylamine trifluoroacetic acid salt] | 7.1 |  |
| Nc1nc(N2CCC(N)C2)c2oc3c(Cl)cc(Cl)cc3c2n1 (centres unmarked) [Example 4, 4-(3-Amino-pyrrolidin-1-yl)-6,8-dichloro-benzo[4,5]furo[3,2-d]pyrimidin-2-ylamine trifluoroacetic acid salt] | 31 |  |
| CN[C@@H]1CCN(c2nc(N)nc3c2oc2ccccc23)C1 [Example 6, (R)-4-(3-Methylamino-pyrrolidin-1-yl)-benzo[4,5]furo[3,2-d]pyrimidin-2-ylamine citric acid salt] | 3.4 |  |
| Nc1nc(N2CC3CCCNC3C2)c2oc3ccc(Cl)cc3c2n1 (centres unmarked) [Example 9, 8-Chloro-4-(octahydro-pyrrolo[3,4-b]pyridin-6-yl)-benzo[4,5]furo[3,2-d]pyrimidin-2-ylamine] |  | 2.1 |
| CN1CCCN(c2nc(N)nc3c2oc2ccc(Cl)cc23)CC1 [Example 10, 8-Chloro-4-(4-methyl-[1,4]diazepan-1-yl)-benzo[4,5]furo[3,2-d]pyrimidin-2-ylamine] | 0.74 |  |
| Nc1nc(N2C[C@@H]3C[C@H]2CN3)c2oc3ccc(Cl)cc3c2n1 [Example 11, (S,S)-8-Chloro-4-(2,5-diaza-bicyclo[2.2.1]hept-2-yl)-benzo[4,5]furo[3,2-d]pyrimidin-2-ylamine] |  | 25 |
| Nc1nc(N2CCC[C@H](N)C2)c2oc3ccc(Cl)cc3c2n1 [Example 13, (S)-4-(3-Amino-piperidin-1-yl)-8-chloro-benzo[4,5]furo[3,2-d]pyrimidin-2-ylamine trifluoroacetic acid salt] | 9.6 |  |
| CN(C)C1CCN(c2nc(N)nc3c2oc2ccc(Cl)cc23)C1 (centres unmarked) [Example 15, 8-Chloro-4-(3-dimethylamino-pyrrolidin-1-yl)-benzo[4,5]furo[3,2-d]pyrimidin-2-ylamine trifluoroacetic acid salt] | 6.2 |  |
| Nc1nc(N2CCC(N)C2)c2oc3ccc(Cl)cc3c2n1 (centres unmarked) [Example 16, 4-(3-Amino-pyrrolidin-1-yl)-8-chloro-benzo[4,5]furo[3,2-d]pyrimidin-2-ylamine trifluoroacetic acid salt] | 2.3 |  |
| CN[C@@H]1CCN(c2nc(N)nc3c2oc2ccc(Cl)cc23)C1 [Example 18, (R)-8-Chloro-4-(3-methylamino-pyrrolidin-1-yl)-benzo[4,5]furo[3,2-d]pyrimidin-2-ylamine] | 0.42 |  |
| CN[C@@H]1CCN(c2nc(N)nc3c2oc2ccc(Br)cc23)C1 [Example 19, (R)-8-Bromo-4-(3-methylamino-pyrrolidin-1-yl)-benzo[4,5]furo[3,2-d]pyrimidin-2-ylamine trifluoroacetic acid salt] | 0.74 |  |
| Nc1nc(N2CCN3CCCC3C2)c2oc3ccc(Br)cc3c2n1 (centres unmarked) [Example 20, 8-Bromo-4-(hexahydro-pyrrolo[1,2-a]pyrazin-2-yl)-benzo[4,5]furo[3,2-d]pyrimidin-2-ylamine trifluoroacetic acid salt] |  | 4.7 |
| Nc1nc(N2CCC(N)C2)c2oc3ccccc3c2n1 (centres unmarked) [Example 21, 4-(3-Amino-pyrrolidin-1-yl)-benzo[4,5]furo[3,2-d]pyrimidin-2-ylamine trifluoroacetic acid salt] | 5.7 |  |
| CN(C)[C@@H]1CCN(c2nc(N)nc3c2oc2ccccc23)C1 [Example 22, (R)-4-(3-Dimethylamino-pyrrolidin-1-yl)-benzo[4,5]furo[3,2-d]pyrimidin-2-ylamine trifluoroacetic acid salt] | 12 |  |
| Nc1nc(N2CCNCC2)c2oc3ccccc3c2n1 [Example 23, 4-piperazin-1-yl-benzo[4,5]furo[3,2-d]pyrimidin-2-ylamine trifluoroacetic acid salt] | 21 |  |
| Nc1nc(N2CC[C@@H](N)C2)c2oc3ccc(Cl)cc3c2n1 [Example 25, (R)-4-(3-Amino-pyrrolidin-1-yl)-8-chloro-benzo[4,5]furo[3,2-d]pyrimidin-2-ylamine trifluoroacetic acid salt] | 2.4 |  |
| NC[C@@H]1CCN(c2nc(N)nc3c2oc2ccc(Cl)cc23)C1 [Example 26, (S)-4-(3-Aminomethyl-pyrrolidin-1-yl)-8-chloro-benzo[4,5]furo[3,2-d]pyrimidin-2-ylamine trifluoroacetic acid salt] | 90 |  |
| Nc1nc(N2CC3CNCC3C2)c2oc3ccc(Cl)cc3c2n1 (centres unmarked) [Example 27, 8-Chloro-4-(hexahydro-pyrrolo[3,4-c]pyrrol-2-yl)-benzo[4,5]furo[3,2-d]pyrimidin-2-ylamine trifluoroacetic acid salt] | 110 |  |

Continued, in another order:

| Ki [1] [nM] | SMILES | Ki [nM] |
| --- | --- | --- |
| 14 | COc1ccc2oc3c(N4C[C@H]5CCCN[C@H]5C4)nc(N)nc3c2c1 (relative stereo) [Example 105, (cis)-8-Methoxy-4-(octahydro-pyrrolo[3,4-b]pyridin-6-yl)-benzo[4,5]furo[3,2-d]pyrimidin-2-ylamine trifluoroacetic acid salt] |  |
| 930 | OCCNc1nc(N2C[C@H]3CCCN[C@H]3C2)c2oc3ccc(Cl)cc3c2n1 (relative stereo) [Example 117, (cis)-2-[8-Chloro-4-(octahydro-pyrrolo[3,4-b]pyridin-6-yl)-benzo[4,5]furo[3,2-d]pyrimidin-2-ylamino]-ethanol] |  |
| 76 | CC(C)N1CCCN(c2nc(N)nc3c2oc2ccc(Cl)cc23)CC1 [Example 3, 8-Chloro-4-(4-isopropyl-[1,4]diazepan-1-yl)-benzo[4,5]furo[3,2-d]pyrimidin-2-ylamine trifluoroacetic acid salt] |  |
| 1.9 | CN[C@@H]1CCN(c2nc(N)nc3c2oc2c(Cl)cc(Cl)cc23)C1 [Example 5, (R)-6,8-Dichloro-4-(3-methylamino-pyrrolidin-1-yl)-benzo[4,5]furo[3,2-d]pyrimidin-2-ylamine trifluoroacetic acid salt] |  |
| 1.1 | Nc1nc(N2CCCNCC2)c2oc3ccc(Cl)cc3c2n1 [Example 7, 8-Chloro-4-[1,4]diazepan-1-yl-benzo[4,5]furo[3,2-d]pyrimidin-2-ylamine trifluoroacetic acid salt] |  |
| 16 | Nc1nc(N2CCN3CCCCC3C2)c2oc3ccc(Cl)cc3c2n1 (centres unmarked) [Example 8, 8-Chloro-4-(octahydro-pyrido[1,2-a]pyrazin-2-yl)-benzo[4,5]furo[3,2-d]pyrimidin-2-ylamine] |  |
| 0.86 | CNC1CCN(c2nc(N)nc3c2oc2ccc(Cl)cc23)C1 (centres unmarked) [Example 12, 8-Chloro-4-(3-methylamino-pyrrolidin-1-yl)-benzo[4,5]furo[3,2-d]pyrimidin-2-ylamine] |  |
| 1.1 | Nc1nc(N2CCNCC2)c2oc3ccc(Cl)cc3c2n1 [Example 14, 8-Chloro-4-piperazin-1-yl-benzo[4,5]furo[3,2-d]pyrimidin-2-ylamine trifluoroacetic acid salt] |  |
| 2.1 | CN[C@H]1CCN(c2nc(N)nc3c2oc2ccc(Cl)cc23)C1 [Example 17, (S)-8-Chloro-4-(3-methylamino-pyrrolidin-1-yl)-benzo[4,5]furo[3,2-d]pyrimidin-2-ylamine] |  |
| 5.5 | CN(C)[C@@H]1CCN(c2nc(N)nc3c2oc2ccc(Cl)cc23)C1 [Example 24, (R)-8-Chloro-4-(3-dimethylamino-pyrrolidin-1-yl)-benzo[4,5]furo[3,2-d]pyrimidin-2-ylamine trifluoroacetic acid salt] |  |
| 110 | Nc1nc(N2CCC[C@@H](N)C2)c2oc3ccc(Cl)cc3c2n1 [Example 28, (R)-4-(3-Amino-piperidin-1-yl)-8-chloro-benzo[4,5]furo[3,2-d]pyrimidin-2-ylamine trifluoroacetic acid salt] |  |
| 140 | NCC1CCN(c2nc(N)nc3c2oc2ccc(Cl)cc23)C1 (centres unmarked) [Example 29, 4-(3-Aminomethyl-pyrrolidin-1-yl)-8-chloro-benzo[4,5]furo[3,2-d]pyrimidin-2-ylamine trifluoroacetic acid salt] |  |
| 140 | NC[C@H]1CCN(c2nc(N)nc3c2oc2ccc(Cl)cc23)C1 [Example 30, (R)-4-(3-Aminomethyl-pyrrolidin-1-yl)-8-chloro-benzo[4,5]furo[3,2-d]pyrimidin-2-ylamine trifluoroacetic acid salt] |  |
